Laboratory results taken from patent US20160346324A1, “Method of Inactivating Bacterial Lipases Using Oxidative Chlorine Species” (NovaBay Pharmaceuticals, Inc., priority 2015, published 2016).
“Also recorded” adds a separate entry of the source.

Tests used:
Type in all cases: biochemical
[1] = test system: Pseudomonas fluorescens lipase; test: Lipase Activity Assay Kit III, Pseudomonas fluorescens lipase treated with HOCl; conditions: one hour at 37° C.
Protocol: (§1) Lipases from Burkholderia cepacia, Pseudomonas fluorescens, Thermus thermophilus, Talaromyces flavus and Burkholderia species were obtained from Sigma (Catalog Numbers 62309, 28602, L3419, L3294 and 75577, respectively) and were diluted into sterile water for testing.
(§2) Alternative procedure: Activity of 0.01% HOCl in saline pH 4 against each lipase was determined as follows. 10 μL of 0.01% HOCl was added to 90 μL of 2 mg/mL lipase (final concentration of HOCl 0.001%). After one hour of incubation at 37° C., the lipase-HOCl solutions were diluted 500-fold into lipase buffer. Alternatively, 90 μL of 0.01% HOCl was added to 10 μL solution of 2 mg/mL lipase (final concentration of HOCl 0.009%) and after an hour of incubation at 37° C., the lipase-HOCl solutions were diluted 50-fold into lipase buffer. The lipase activity was determined using the Lipase Activity Assay Kit III (Sigma Aldrich®, St. Louis, Mo., USA).
(§3) Alternative procedure without a 10 minutes incubation: A SpectraMax® M5 Microplate Reader was used to continuously incubate the microtiter plate at 37° C. and measure the fluorescence ([…]=529/600 nm) every 5 minutes for 1.5 hours with no incubation period. The results are shown on FIG. 1. […]
(§4) Activity of lipases from Pseudomonas fluorescens, Thermusthermophilus, flavus and Burkholderia are determined using methods similar to the one described above for Burkholderia cepacia lipase. […]

lipase = test: Lipase Activity Assay Kit III, lipase stock treated with equal part of test product versus sterile water; conditions: 0.01% HOCl solution, 37° C. for 1 hour
Protocol: Merck describes a fluorimetric method where lipase activity is determined using a coupled enzyme reaction, which results in the generation of methylresorufin (lex=529/lem=600 nm) proportional to the enzymatic activity present. One unit of lipase is the amount of enzyme that will generate […] of methylresorufin from the substrate per minute at 37° C. (Lipase Activity Assay Kit III Catalog Number MAK048). The lipase stock was treated with equal part of the test product. The control consisted of equal parts of the lipase stock and sterile water. Both were incubated at 37° C. for 1 hour.
The Lipase Activity Assay Kit III (Sigma MAK048) consisted of materials for a standard, a positive control and background control. Once all the controls and the standard were set-up into a 96-well microtiter plate according to the provided instructions, 2 μL of the lipase treatments were diluted into 998 μL of the provided Lipase Assay Buffer. In the microtiter plate, 2 μL of this dilution was added to 48 μL of the Lipase Assay Buffer in quintuplicate. The reaction mix was added to every well except for the standard.
Using the SpectraMax M5, the plate was shaken and incubated for 3 minutes prior to reading the relative fluorescence units (RFU) at λex/λem=529/600 nm. Incubation was continued at 37° C. and the microtiter plate was read every 5 minutes for 1 hour with shaking prior to every reading.

[2] = test system: Talaromyces flavus lipase; test: Lipase Activity Assay Kit III, Talaromyces flavus lipase treated with HOCl; conditions: one hour at 37° C.
Protocol: as §1, §2, §3, §4

[3] = biological target: T1, Burkholderia cepacia lipase (Burkholderia cepacia, UniProt P22088); test: Lipase Activity Assay Kit III, Burkholderia cepacia lipase treated with HOCl; conditions: one hour at 37° C.
T1 construct: purchased Sigma 62309
T1 sequence (P22088 45-364): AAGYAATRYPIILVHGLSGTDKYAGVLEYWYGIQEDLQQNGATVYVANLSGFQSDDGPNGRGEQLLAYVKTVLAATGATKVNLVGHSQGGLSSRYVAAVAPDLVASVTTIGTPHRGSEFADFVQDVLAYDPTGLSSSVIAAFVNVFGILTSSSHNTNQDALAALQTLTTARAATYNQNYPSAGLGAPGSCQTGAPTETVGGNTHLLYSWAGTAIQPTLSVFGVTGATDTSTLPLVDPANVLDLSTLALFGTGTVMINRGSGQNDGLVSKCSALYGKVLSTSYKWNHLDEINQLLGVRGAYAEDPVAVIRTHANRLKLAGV
Protocol: as §1
Activity of 0.01% HOCl in saline pH 4 against Burkholderia cepacia lipase was determined as follows. 0.01% HOCl was added to a solution of 2 mg/mL of Pseudomonas cepacia lipase (Sigma Aldrich®, St. Louis, Mo., USA). After an hour of incubation at 37° C., the lipase-HOCl solutions were diluted 500-fold into lipase buffer. The lipase activity was determined using the Lipase Activity Assay Kit III (Sigma Aldrich®, St. Louis, Mo., USA).
as §2
A SpectraMax® M5 Microplate Reader was used to continuously incubate the microtiter plate at 37° C. and measure the fluorescence ([…]=529/600 nm) every 5 minutes for 1.5 hours after an initial 10-minute incubation period. The results are shown on FIG. 1.
Alternative procedure without a 10 minutes incubation: A SpectraMax® M5 Microplate Reader was used to continuously incubate the microtiter plate at 37° C. and measure the fluorescence ([…]=529/600 nm) every 5 minutes for 1.5 hours with no incubation period. The results are shown on FIG. 1. […] The results are shown on FIGS. 1, 2, and 3. […] In the presence of 0.009% HOCl, all lipases were inactivated (FIGS. 2, 3).

[4] = 0.001% HOCl final concentration
[5] = 0.009% HOCl final concentration

OCl [HOCl, hypochlorous acid]
inactivation of Pseudomonas fluorescens lipase [1, 4]: still active
inactivation of Pseudomonas fluorescens lipase [1, 5]: inactivation; also recorded: inactivated
inactivation of lipase versus sterile water control (lipase): inactivates lipase
inactivation of Talaromyces flavus lipase [2, 4]: inactivation; also recorded: completely inactivated
inactivation of Talaromyces flavus lipase [2, 5]: inactivated
inactivation of Burkholderia cepacia lipase [3, 4]: still active
inactivation of Burkholderia cepacia lipase [3, 5]: inactivation; also recorded: inactivated
inactivation of bacterial lipase (lipase activity, fluorescence) ([3]; 0.01% HOCl in saline pH 4, 2 mg/mL lipase): completely inactivated
